Results taken from ChEMBL document CHEMBL1201862, “PubChem BioAssay data set” (2004).
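Exposure lasted 48 hours, with cells grown in 96-well plates and compounds tested at five concentrations. Here, GI50 denotes the concentration required for 50% inhibition of growth.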 Active and inactive are the calls of the source. No stated cut-off is given here; in the data, active = GI50 up to about 1.1 µM and inactive = higher.

Tests used:
Test in all cases: growth of human tumour cells (NCI), 48 h
[1] = tested on: ACHN
[2] = tested on: KM12
[3] = tested on: OVCAR-5
[4] = tested on: SK-MEL-28
[5] = tested on: SW-620
[6] = tested on: SNB-75
[7] = tested on: HCT-116
[8] = tested on: 786-0
[9] = tested on: K562
[10] = tested on: TK-10
[11] = tested on: OVCAR-4
[12] = tested on: SNB-78
[13] = tested on: IGROV-1
[14] = tested on: UO-31
[15] = tested on: RXF 393
[16] = tested on: SF-295
[17] = tested on: NCI-H226
[18] = tested on: HCC 2998
[19] = tested on: DU-145
[20] = tested on: MCF7

Measured: GI50

O=C(CO)C1CC2C=CC1C2 (stereo not drawn)
inactive: [1] > 100 µM | [2] > 100 µM | [3] > 100 µM | [4] > 100 µM | [5] > 100 µM | [6] > 100 µM | [7] > 100 µM | [8] > 100 µM | [9] > 100 µM | [10] > 100 µM | [11] > 100 µM | [12] > 100 µM | [13] > 100 µM | [14] > 100 µM | [15] > 100 µM | [16] > 100 µM

CCN(CC)C(=O)C/C(C)=N/NC(=O)c1ccncc1
inactive: [2] > 100 µM | [3] > 100 µM | [4] > 100 µM | [5] > 100 µM | [6] > 100 µM | [17] > 100 µM | [7] > 100 µM | [8] > 100 µM | [9] > 100 µM | [10] > 100 µM | [12] > 100 µM | [13] > 100 µM | [14] > 100 µM | [15] > 100 µM | [16] > 100 µM | [18] > 100 µM

O=[N+]([O-])[C@@H]1C2C=CC(C2)[C@H]1Cl (stereo partly drawn)
inactive: [1] > 100 µM | [2] > 100 µM | [3] > 100 µM | [4] > 100 µM | [5] > 100 µM | [6] > 100 µM | [7] > 100 µM | [8] > 100 µM | [9] > 100 µM | [10] > 100 µM | [11] > 100 µM | [12] > 100 µM | [13] > 100 µM | [14] > 100 µM | [15] > 100 µM | [16] > 100 µM

c1ccc2c(c1)OCCOCCOc1ccccc1OCCO2
inactive: [1] 51.9 µM | [2] 35.2 µM | [3] 77.3 µM | [4] > 100 µM | [5] 26.9 µM | [6] 47.1 µM | [17] 79.6 µM | [7] 40.5 µM | [8] 86.9 µM | [9] 28.4 µM | [10] 45.6 µM | [11] 39.3 µM | [12] > 100 µM | [13] 71.8 µM | [14] 30 µM | [15] 60.1 µM | [16] 62.4 µM

O=C(O)c1c2c(c(C(=O)O)c3ccccc13)-c1ccccc1-2
inactive: [1] 30.8 µM | [2] 38.4 µM | [3] > 100 µM | [4] 20.3 µM | [5] 36.8 µM | [6] 36.7 µM | [17] 34 µM | [7] 78.9 µM | [8] 36.8 µM | [9] 33.6 µM | [10] 36.1 µM | [12] 71.1 µM | [13] > 10 µM | [14] 28.1 µM | [15] 21.9 µM | [16] 33.6 µM | [18] 37.1 µM

COc1nc(NC2OCC(OC(C)=O)C(OC(C)=O)C2OC(C)=O)c(-c2csc(N)n2)c(=O)n1C (stereo not drawn)
inactive: [1] > 100 µM | [2] > 100 µM | [3] > 100 µM | [4] > 100 µM | [5] > 100 µM | [6] > 100 µM | [17] > 100 µM | [7] > 100 µM | [8] > 100 µM | [9] > 100 µM | [10] > 100 µM | [11] > 100 µM | [12] > 100 µM | [13] > 100 µM | [14] > 100 µM | [16] > 100 µM

CC1=CC(=O)c2c(C=O)c(O)c(O)c(C(C)C)c2C1=O
inactive: [1] 16.8 µM | [3] 35.5 µM | [4] 34 µM | [6] 40.7 µM | [17] 10.6 µM | [7] 18.3 µM | [8] 19.8 µM | [9] 26.1 µM | [11] 14.6 µM | [12] 45.9 µM | [13] 22.5 µM | [14] 22 µM | [15] 14 µM | [18] 29.3 µM

Cc1ccc(NC(=O)C2C(=O)N(c3ccc(C)c(C)c3)C(=O)C2N=N)cc1C (stereo not drawn)
inactive: [1] 90.4 µM | [2] > 100 µM | [3] > 100 µM | [4] > 100 µM | [5] > 100 µM | [6] > 100 µM | [17] > 100 µM | [7] > 100 µM | [8] > 100 µM | [10] > 100 µM | [11] > 100 µM | [12] > 100 µM | [13] 97.1 µM | [14] > 100 µM | [15] > 100 µM | [16] 65 µM | [18] > 100 µM

COc1ccc2c3c([nH]c2c1[N+](=O)[O-])C(C)N(C)CC3 (stereo not drawn)
inactive: [1] > 100 µM | [2] 51.6 µM | [3] > 100 µM | [4] > 100 µM | [5] 29.6 µM | [6] 72.3 µM | [17] > 100 µM | [7] > 100 µM | [8] > 100 µM | [9] 18.1 µM | [10] > 100 µM | [11] 38 µM | [12] > 100 µM | [13] > 100 µM | [14] 76.2 µM | [16] 62.8 µM | [18] > 100 µM

CCc1cc(C)cc2[n+]1CC=C2C.[O-][Cl+3]([O-])([O-])[O-]
inactive: [1] > 100 µM | [2] > 100 µM | [3] > 100 µM | [4] > 100 µM | [5] > 100 µM | [6] > 100 µM | [17] > 100 µM | [8] > 100 µM | [10] > 100 µM | [11] > 100 µM | [12] > 100 µM | [14] > 100 µM | [15] 27.3 µM | [16] > 100 µM | [18] > 100 µM

Cc1c(C(=O)/C=C/c2ccccc2O)c(=O)n(-c2ccccc2)n1C
inactive: [1] 19 µM | [2] > 10 µM | [3] 66.8 µM | [4] 25.1 µM | [5] 15.1 µM | [6] 50.6 µM | [17] 33.5 µM | [7] 16.5 µM | [8] 20.4 µM | [10] 90.6 µM | [12] 39.4 µM | [13] 42.1 µM | [14] > 10 µM | [15] 14.2 µM | [16] 14.6 µM | [18] 16 µM

O=C(O)c1c(-c2cccc3ccccc23)sc(-c2cccc3ccccc23)c1C(=O)O
inactive: [1] > 100 µM | [2] 36.6 µM | [3] > 100 µM | [4] > 100 µM | [5] > 100 µM | [6] > 100 µM | [17] > 100 µM | [7] > 100 µM | [8] > 100 µM | [9] 90.8 µM | [10] > 100 µM | [12] > 100 µM | [13] > 100 µM | [14] 88.3 µM | [15] > 100 µM | [16] > 100 µM | [18] > 100 µM

CCOC1=C2C(=O)OC(=O)C2C2CCCCC2=C1 (stereo not drawn)
inactive: [2] > 100 µM | [4] > 100 µM | [5] > 100 µM | [6] > 100 µM | [7] > 100 µM | [8] > 100 µM | [9] > 100 µM | [10] > 100 µM | [11] > 100 µM | [12] > 100 µM | [13] > 100 µM | [14] > 100 µM | [15] > 100 µM | [16] > 100 µM | [18] > 100 µM

O=C(N/C(=C\c1ccc(/C=C(\NC(=O)c2ccccc2)c2nc3cc(Cl)ccc3[nH]2)cc1)c1nc2cc(Cl)ccc2[nH]1)c1ccccc1
inactive: [1] 26.9 µM | [2] 14 µM | [3] > 100 µM | [4] 17.5 µM | [5] 55 µM | [6] 24.4 µM | [17] > 100 µM | [7] 17.7 µM | [8] 25.6 µM | [9] 12 µM | [10] 28.6 µM | [11] 20.2 µM | [12] > 100 µM | [13] 46 µM | [14] 25.2 µM | [15] 13.4 µM | [16] 28.4 µM

COc1cc2c(cc1OC)[Se]c1cc(OC)c(OC)cc1[Se]2
inactive: [1] > 10 µM | [2] 6.15 µM | [3] > 10 µM | [4] > 10 µM | [5] > 10 µM | [6] 6.84 µM | [17] > 10 µM | [7] > 10 µM | [8] > 10 µM | [9] 6.64 µM | [10] > 10 µM | [11] > 10 µM | [12] > 10 µM | [13] > 10 µM | [14] > 10 µM | [15] 15.1 µM | [16] 18.3 µM

O=C(CSc1nnc[nH]1)C[P+](c1ccccc1)(c1ccccc1)c1ccccc1
inactive: [1] > 100 µM | [2] > 100 µM | [3] > 100 µM | [4] > 100 µM | [5] > 100 µM | [6] 27.4 µM | [8] > 100 µM | [9] 43.4 µM | [10] > 100 µM | [11] 94 µM | [12] > 100 µM | [13] > 100 µM | [14] > 100 µM | [15] 61.4 µM | [16] > 100 µM | [18] > 100 µM

CC1(C)CCC(C)(C)c2cc(NC(=O)c3ccc(C(=O)O)cc3)ccc21 [TAMIBAROTENE]
inactive: [1] 36.5 µM | [2] 20.7 µM | [3] > 51.6 µM | [4] > 48.3 µM | [5] > 60.4 µM | [6] > 100 µM | [17] 22.2 µM | [7] 18.7 µM | [8] 31.3 µM | [9] 54.7 µM | [10] 25.1 µM | [11] 31.1 µM | [13] 34.8 µM | [14] 17.2 µM | [15] 26.9 µM | [19] 23.8 µM | [16] 22.6 µM | [18] 27.2 µM | [20] 28.9 µM
